Experimental data as given in patent US11225481B2 (Centre national de la recherche scientifique, priority 2015, dated 2022).

Legend:
BRD4(BD1) = molecular target: T1, BRD4(BD1) (Homo sapiens, UniProt O60885); assay: Isothermal Titration Calorimetry; assay type: binding
T1 construct: a BRD4(BD1) synthetic gene that includes a TEV cleavage site was purchased from LifeTechnology; made in house
Excerpt: For Isothermal Titration Calorimetry (ITC) and crystallogenesis, BRD4(BD1) was produced and purified using a histidine tag affinity chromatography as described by Filipakopoulos et al.9 For these experiments, a pNIC28-BSA4 expression vector containing BRD4(BD1) and a Tobacco Etch Virus (TEV) protease cleavage site have kindly been provided by Stefan Knapp laboratory from the SGC at the University of Oxford. After size exclusion chromatography, the fractions presenting pure BRD4(BD1) after TEV cleavage of the histidine tag were pooled and concentrated to 25 mg/mL for crystallogenesis. For ITC assays, the protein was concentrated up to at 6 mg/mL and the DTT was removed using a buffer exchange column (PD10 from GE healthcare) equilibrated with 10 mM HEPES pH=7.5, 150 mM NaCl. For Homogeneous Time Resolved Fluorimetry (HTRF) experiments, a BRD4(BD1) synthetic gene that includes a TEV cleavage site was purchased from LifeTechnology in a pDONR transport vector before cloning into a pDESTTM15 expression vector for GST affinity purification. Protein production and purification was carried out using similar protocols and buffers as used for the His-BRD4(BD1) system. Purification was carried on GST affinity resin (Thermo Scientific) and reduced glutathione was used for protein release. GST-BRD4(BD1) was further purified by size exclusion chromatography on a Superdex 16/60 Hiload column (GE Healthcare) using 20 mM TRIS pH=8.0, 150 mM NaCl Buffer.
ITC was used to evaluate the thermodynamics parameters of the binding between BRD4(BD1) and the selected compounds, using ITC conditions previously described by Filippakopoulos et al.8 Purified BRD4(BD1) was extensively dialyzed in the ITC buffer containing 10 mM Hepes pH=7.5 and 150 mM NaCl. Compounds were diluted directly in the last protein dialysate prior to experiments. Titrations were carried out on a MicroCal ITC200 microcalorimeter (GE Healthcare, Piscataway, N.J.). Each experiment was designed using a titrant concentration (protein in the syringe) set 10 to 15 times the analyte concentration (compound in the cell generally between 10 and 35 μM) and using 13 injections at 35° C. A first small injection (generally 0.2 μL) was included in the titration protocol in order to remove air bubbles trapped in the syringe prior titration. Raw data were scaled after setting the zero to the titration saturation heat value. Integrated raw ITC data were fitted to a one site non-linear least squares fit model using the MicroCal Origin plugin as implemented in Origin 7 (Origin Lab). Finally, ΔG and TΔS values were calculated from the fitted ΔH and KA values using the equations ΔG=−R.T. ln KA and ΔG=ΔH−TΔS.

Jurkat cells = assay: Cell Titer-Glo cell viability (cytotoxicity experiments); assay type: cell-based; conditions: Homo sapiens, 72 h incubation at 37° C., read-out: EC50, Jurkat T cells viability
Description: The human leukemia cell line Jurkat (ATCC® TIB-152) was maintained in RPMI-1640 medium supplemented with 10% FBS at 37° C. and 5% CO2. Human osteosarcoma cell line (U2OS, ATCC® HTB-96™) was maintained in DMEM supplemented with 10% FBS at 37° C. and 5% CO2.
In antiproliferative assays, compounds were assayed for their growth inhibiting activity towards the described cancer cell lines using the Cell Titer-Glo Luminescent Cell Viability Assay as described by the manufacturer (Promega Corporation). Briefly, […] cells were plated onto 96 well-plates (white with clear bottom (3610, Corning Costar)) in 100 μL media per well immediately before assay. Compounds were added at different concentrations (ranging from 100 to 0.05 μM) to each well and cell cultures were incubated 37° C. during 72 h. Vehicle (DMSO) was used as control and all compounds were tested in constant percentage of DMSO (1%). After addition of 50 μL Cell Titer-GLO, Luminescence was measured using a Centro luminometer LB960 (Berthold). Dose-response curves were generated and effective dose 50 values (EC50) were calculated using non-linear regression analysis (Graph Pad Prism).

c-Myc = assay: Western blot of c-Myc in Jurkat cells; assay type: cell-based, human; conditions: 24 h, same range of concentration as EC50
Description: Non-treated Jurkat cells and Jurkat cells treated during 24 h with compound of the invention 26b, or DMSO were lysed in RIPA lysis buffer (Tris HCl pH=7.5 50 mM, NaCl 150 mM, Triton 1%, SDS 0.1%, sodium deoxycholate 1%) supplemented with protease inhibitor cocktail (P8340, Sigma-Aldrich) and 1 mM PhenylMethylSulfonyl Fluoride (Sigma-Aldrich). 75 μg of protein were loaded onto 10% acrylamide SDS/PAGE and then transferred to nitrocellulose Hybond C-extra membranes, […] (GE Healthcare). The membranes were saturated with 5% (wt/vol) skim milk in TBST [Tris-buffered saline/0.1% (vol/vol) Tween 20] 1 h at room temperature and incubated with anti-myc antibody (clone 9E10, sc40 Santa Cruz) at a 1:500 dilution in 0.5% (wt/vol) skimmed milk in TBST overnight at 4° C. Membranes were then washed with TBST, incubated with an HRP-conjugated anti-mouse secondary antibody (polyclonal goat anti mouse P0447, Pierce) at a 1:20,000 dilution in TBST 1 h at room temperature. […] Quantification was performed using ImageJ software.

entropy term −TΔS (BRD4(BD1); ITC, BRD4(BD1)): -7.1 kcal/mol | Kd (BRD4(BD1); Isothermal Titration Calorimetry): 1.4 µM
Structure (SMILES): CCCCc1c(C)nc2nc(SCc3nc4c(c(=O)[nH]c(=O)n4CCCC)n3CC)nn2c1C [Compound 26b, 3-Butyl-8-(6-butyl-5,7-dimethyl-[1,2,4]triazolo[1,5-a]pyrimidin-2-ylsulfanylmethyl)-7-ethyl-3,7-dihydro-purine-2,6-dione]
EC50 (Jurkat cells): 27 µM | c-Myc down regulation (c-Myc): down regulated c-Myc
